Measured values from the supplement of paper PMC9386025.

What was measured:
Experiment in all cases: drug sensitivity score (DSS) (DSS (dimensionless)); higher = more sensitive (stronger drug response)
FIMM-PDC1 = patient-derived ovarian cancer cells; settings: genetic perturbation: none (patient-derived cell culture)
How it was run: (§1)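 Ovarian cancer cell lines, after at least three days of shRNA induction with 100 ng/ml doxycycline, and patient-derived cultures were plated at 1 000 – 1 500 cells per well into 384-well plates pre-loaded with drugs at five concentrations spanning a 10,000-fold range. Plates were then kept for three days at 37 °C and 5.0 % CO2. Viability was measured as CellTiter-Glo luminescence on a PHERAstar FS, and each drug's dose-response curve was reduced to a drug sensitivity score computed by a previously described method.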

FIMM-PDC3 = patient-derived ovarian cancer cells; settings: genetic perturbation: none (patient-derived cell culture)
How it was run: as §1

FIMM-PDC4 = patient-derived ovarian cancer cells; settings: genetic perturbation: none (patient-derived cell culture)
How it was run: as §1

FIMM-PDC5 = patient-derived ovarian cancer cells; settings: genetic perturbation: none (patient-derived cell culture)
How it was run: as §1

FIMM-PDC6 = patient-derived ovarian cancer cells; settings: genetic perturbation: none (patient-derived cell culture)
How it was run: as §1

FIMM-PDC7 = patient-derived ovarian cancer cells; settings: genetic perturbation: none (patient-derived cell culture)
How it was run: as §1

JHOS2 = test system: JHOS2
How it was run: as §1

Kuramochi = test system: Kuramochi
How it was run: as §1

OVSAHO = test system: OVSAHO
How it was run: as §1

[1] = genetic perturbation: DOX-induced PTK7 shRNA knockdown
[2] = genetic perturbation: DOX-induced control shRNA

| Structure (SMILES) | drug sensitivity score (FIMM-PDC1) | drug sensitivity score (FIMM-PDC3) | drug sensitivity score (FIMM-PDC4) | drug sensitivity score (FIMM-PDC5) | drug sensitivity score (FIMM-PDC6) | drug sensitivity score (FIMM-PDC7) | drug sensitivity score (JHOS2; [1]) | drug sensitivity score (JHOS2; [2]) | drug sensitivity score (Kuramochi; [1]) | drug sensitivity score (Kuramochi; [2]) | drug sensitivity score (OVSAHO; [1]) | drug sensitivity score (OVSAHO; [2]) |
| --- | --- | --- | --- | --- | --- | --- | --- | --- | --- | --- | --- | --- |
| COc1cc(C(=O)O)ccc1NC(=O)[C@@H]1N[C@@H](CC(C)(C)C)[C@](C#N)(c2ccc(Cl)cc2F)[C@H]1c1cccc(Cl)c1F [Idasanutlin] | 0.5 | 5.2 | 5 | 22.5 | 15.6 | 15.7 | < 0 | < 0 | 0.95 | < 0 | 1.1 | < 0 |
| NC(=O)N1CCC(CC(=O)N2CCC([C@H]3c4ncc(Br)cc4CCc4cc(Cl)cc(Br)c43)CC2)CC1 [Lonafarnib] | 9.45 | 9.3 | 6.3 | 7 | 9.8 | 10 | 5.5 | 9 | 8.85 | 8.7 | 9.4 | 9.9 |
| CC1(C)CCC(c2ccc(Cl)cc2)=C(CN2CCN(c3ccc(C(=O)NS(=O)(=O)c4ccc(N[C@H](CCN5CCOCC5)CSc5ccccc5)c(S(=O)(=O)C(F)(F)F)c4)cc3)CC2)C1 [Navitoclax] | 4.85 | 5.7 | 6.2 | 19.5 | 21.9 | 16.4 | 1.1 | < 0 | 1.8 | 4.3 | 10.1 | < 0 |
| COc1cc2ncnc(Nc3ccc(F)c(Cl)c3)c2cc1NC(=O)/C=C/CN1CCCCC1 [Dacomitinib] | 3.2 | 13.1 | 18.2 | 23.4 | 18 | 14 | < 0 | 2 | 2.45 | 1.6 | 4.8 | 2.4 |
| CCCCCCCCc1ccc(CCC(N)(CO)CO)cc1 [Fingolimod] | 5.8 | 5.8 | 7.2 | 8.3 | 5.7 | 7 | 7.1 | 5.3 | 7.4 | 5 | 6.4 | 6.1 |
| COc1cc2ncnc(Nc3ccc(F)c(Cl)c3)c2cc1OCCCN1CCOCC1 [Gefitinib] | 3.4 | 10.9 | 15.2 | 18.6 | 13 | 10.7 | 3.5 | 3.5 | 4.3 | 3.3 | 7.7 | 4.1 |
| CC(C)(C)c1cc(NC(=O)Nc2ccc(Oc3ccnc4[nH]c(=O)cnc34)cc2F)n(-c2ccccc2)n1 | 3.9 | 4.2 | 0.7 | 0.3 | 0.4 | 0.3 | 1.8 | 8.3 | 2.15 | 9.4 | 3.9 | 9.1 |
| CC(=O)c1cc2c(o1)C(=O)c1ccccc1C2=O [Napabucasin] | 10.8 | 21.8 | 15.3 | 13.4 | 14.4 | 17.2 | 22 | 19.2 | 16.7 | 17.3 | 18.9 | 16.1 |
| CCOc1cc2ncc(C#N)c(Nc3ccc(OCc4ccccn4)c(Cl)c3)c2cc1NC(=O)/C=C/CN(C)C [Neratinib] | 1.15 | 9.5 | 11.9 | 16.1 | 14.1 | 8.3 | 0.6 | 5.2 | 0.45 | < 0 | 0.8 | 0.4 |
| CCCCCCCCCCCCCCCCOP(=O)([O-])OCC[N+](C)(C)C [Miltefosine] | 2.55 | 5.7 | 6.6 | 10.6 | 10.2 | 8.1 | 13 | 5.2 | 4.9 | 4.9 | 5.9 | 3.6 |
| CC[C@@]1(O)C(=O)OCc2c1cc1n(c2=O)Cc2cc3c(CN(C)C)c(O)ccc3nc2-1 [Topotecan] | 10.3 | 12.4 | 7.8 | 14.4 | 12.8 | 12.2 | 10.5 | 11.5 | 6.85 | 6.4 | 8.7 | 7.5 |
| Cc1nc(Nc2ncc(C(=O)Nc3c(C)cccc3Cl)s2)cc(N2CCN(CCO)CC2)n1 [Dasatinib] | 6.05 | 13.9 | 19 | 17.8 | 10.7 | 3.2 | 8.7 | 10.1 | 17.9 | 9.5 | 14.5 | 15 |
| O=C(Nc1ccncc1)C(=O)c1cn(Cc2ccc(Cl)cc2)c2ccccc12 [Indibulin] | 8.6 | 6 | 8.8 | 13.9 | 6.5 | 4.2 | 6.4 | 4.5 | 5.8 | < 0 | 6.9 | 2.2 |
| C=C1C[C@@H]2CC[C@@]34C[C@H]5O[C@H]6[C@@H](O3)[C@H]3O[C@H](CC[C@@H]3O[C@H]6[C@H]5O4)CC(=O)C[C@@H]3[C@@H](OC)[C@@H](C[C@H](O)CN)O[C@H]3C[C@H]3O[C@@H](CC[C@@H]1O2)C[C@@H](C)C3=C [Eribulin] | 15.9 | 20.7 | 21.1 | 25.5 | 12.3 | 12.2 | 19 | 11.7 | 18.6 | 5.7 | 18.6 | 15.3 |
| CC(=O)Nc1cccc(-n2c(=O)n(C3CC3)c(=O)c3c(Nc4ccc(I)cc4F)n(C)c(=O)c(C)c32)c1 [Trametinib] | 0.75 | 4.8 | 13 | 17.2 | 10.3 | 9 | 1.6 | 12.5 | 8.9 | 4.5 | 10.6 | 7.3 |
| C1=N/C2=N/c3ccc(OCCN4CCCC4)c(c3)COC/C=C/COCc3cccc(c3)C(=C1)N2 [Pacritinib] | 6.7 | 7.7 | 7.6 | 10.6 | 7.5 | 5 | 9.3 | 10.9 | 7.05 | 9.3 | 10.1 | 9.6 |
